Experimental data as given in the supplement of paper PMC10307832.

Compound: CN(C)C(=N)NC(=N)N [Metformin] + CC(=O)Nc1cccc(-n2c(=O)n(C3CC3)c(=O)c3c(Nc4ccc(I)cc4F)n(C)c(=O)c(C)c32)c1 [Trametinib] (partner 0.02 µM)
Assay: relative viability (nuclei count vs DMSO), 5 days (fraction); higher = more cells survive
Settings: first compound 1000 µM
Procedure, shortened: (§1)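 Dosing by pin tool came one day after lung cancer cell lines were seeded in 1536-well plates, using either one drug or a fixed anchor-drug dose plus five library-drug doses (not always all listed) in √10 steps. After 5 days, nuclei were counted on 4× images. Relative viability is treated-well nuclei count divided by vehicle-well nuclei count, and values are medians of duplicate plates.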

Cell Line	relative viability
HOP-62	0.485
LC-2-ad	0.857
LCLC-97TM1	0.229
LCLC-103H	0.684
LK-2	1.26
LOU-NH91	0.761
NCI-H358	0.157
NCI-H522	1.21
NCI-H1395	0.756
NCI-H1648	0.73
NCI-H1793	0.507
NCI-H1944	0.415
NCI-H2170	0.945
NCI-H2228	0.553
NCI-H2342	0.801
SK-MES-1	0.616
SW 900	1.2

Compound: CN(C)C(=N)NC(=N)N [Metformin] + CC(C)C[C@H](NC(=O)[C@H](Cc1ccccc1)NC(=O)c1cnccn1)B(O)O [Bortezomib] (partner 0.002 µM)
Assay: as above
Settings: first compound 10 µM
Procedure, shortened: as §1

Cell Line	relative viability
A-427	0.997
BEN	1.08
CAL-12T	1.16
COR-L23	1.04
COR-L 105	1.07
Calu-6	0.842
ChaGo-K-1	1.03
EBC-1	0.699
EKVX	0.737
EMC-BAC-2	1.09
EPLC-272H	0.837
H3255	0.716
HARA	1.2
HCC-15	0.617
HCC-44	0.861
HCC-78	0.842
HCC-366	1.09
HOP-62	0.602
LCLC-97TM1	0.635
LCLC-103H	0.971
LOU-NH91	0.515
NCI-H1299	1.09
NCI-H1563	0.917
NCI-H1703	0.389
NCI-H2228	1.44

Same assay, conditions: first compound 31.62 µM

Cell Line	relative viability
201T	1.15
A-427	1
ABC-1	0.294
BEN	1.18
CAL-12T	0.935
COR-L23	0.867
COR-L 105	1.05
Calu-6	0.957
ChaGo-K-1	1.03
EBC-1	0.666
EKVX	1.07
EMC-BAC-2	1.11
EPLC-272H	0.91
H3255	0.89
HARA	1.07
HCC-15	1.08
HCC-44	0.858
HCC-78	0.797
HCC-366	1.11
HCC-827	0.952
HOP-62	0.745
IA-LM	1.14
LC-2-ad	1.01
LCLC-97TM1	0.87
LCLC-103H	1.22
LOU-NH91	0.504
NCI-H1299	1.06
NCI-H1563	0.866
NCI-H1703	0.394
NCI-H2228	1.09

Same assay, conditions: first compound 100 µM

Cell Line	relative viability
201T	1.1
A-427	0.94
ABC-1	0.334
BEN	0.775
CAL-12T	1.02
COR-L23	0.86
COR-L 105	1.04
Calu-6	1.06
ChaGo-K-1	0.993
EBC-1	0.618
EKVX	1.06
EMC-BAC-2	1.04
EPLC-272H	0.907
H3255	0.88
HARA	1.19
HCC-15	1.04
HCC-44	0.88
HCC-78	0.929
HCC-366	1.01
HCC-827	1.12
HOP-62	0.209
IA-LM	1.03
LC-2-ad	0.766
LCLC-97TM1	0.789
LCLC-103H	1.06
LOU-NH91	0.511
NCI-H1299	1.08
NCI-H1563	1.02
NCI-H1703	0.453

Same assay, conditions: first compound 316.23 µM

Cell Line	relative viability
201T	1.06
A-427	0.963
ABC-1	0.277
BEN	0.993
CAL-12T	1.06
COR-L23	0.882
COR-L 105	0.874
Calu-6	0.817
ChaGo-K-1	0.972
EBC-1	0.541
EKVX	0.934
EMC-BAC-2	1.11
EPLC-272H	0.909
H3255	0.991
HARA	1.13
HCC-15	0.932
HCC-44	0.88
HCC-78	0.831
HCC-366	1.02
HCC-827	0.919
HOP-62	0.723
IA-LM	0.893
LC-2-ad	0.756
LCLC-97TM1	0.713
LCLC-103H	1.12
LOU-NH91	0.56
NCI-H1299	1.06
NCI-H1563	0.877
NCI-H1703	0.42
NCI-H2228	0.956

Same assay, conditions: first compound 1000 µM

Cell Line	relative viability
201T	1.12
A-427	0.901
ABC-1	0.344
BEN	0.511
CAL-12T	1.15
COR-L23	0.99
COR-L 105	1.17
Calu-6	0.66
ChaGo-K-1	0.628
EBC-1	0.59
EKVX	0.338
EMC-BAC-2	1.09
EPLC-272H	1.22
H3255	0.415
HARA	1.18
HCC-15	1.09
HCC-44	0.856
HCC-78	0.853
HCC-366	1.12
HCC-827	0.925
HOP-62	0.816
IA-LM	0.624
LC-2-ad	0.926
LCLC-97TM1	0.351
LCLC-103H	1.06
LOU-NH91	0.474
NCI-H1299	1.06
NCI-H1563	0.954
NCI-H1703	0.505
